Measurements as given in patent US5279935A, “Method of immunossay including deactivation of endogenous alkaline phosphatase” (Becton, Dickinson and Company, priority 1990, dated 1994).
Read-outs that look alike come from different tables or passages of the source.

Columns and labels:
[1] = test system: endogenous AP in uninfected MDCK cells; design: species or system canine
E. coli AP = E. coli AP (Escherichia coli, UniProt P00634); type: biochemical
[2] = 600 ng uninfected MDCK cells, acid wash 0.15M
[3] = 4.8 units/test of E. coli AP spike
[4] = 4.8 units/test of E. coli AP spike, no antigen, acid wash 0.15M

Chain of E. coli AP (P00634 22-471): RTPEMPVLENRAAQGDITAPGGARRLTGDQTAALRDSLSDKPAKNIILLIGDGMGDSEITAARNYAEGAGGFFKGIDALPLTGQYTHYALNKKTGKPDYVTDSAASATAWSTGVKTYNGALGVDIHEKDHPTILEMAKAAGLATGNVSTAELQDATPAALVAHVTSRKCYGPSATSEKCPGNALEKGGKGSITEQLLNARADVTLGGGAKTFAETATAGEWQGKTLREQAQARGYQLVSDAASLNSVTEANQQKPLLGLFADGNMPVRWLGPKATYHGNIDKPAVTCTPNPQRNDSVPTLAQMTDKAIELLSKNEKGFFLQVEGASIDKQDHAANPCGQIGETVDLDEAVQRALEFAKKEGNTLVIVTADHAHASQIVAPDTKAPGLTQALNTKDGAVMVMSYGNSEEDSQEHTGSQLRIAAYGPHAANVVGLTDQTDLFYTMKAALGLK

O=C(O)CC(O)(CC(=O)O)C(=O)O [A, citric acid]
Reflectance (arbitrary units) [1, 2]: .12 arbitrary units | reduction of signal due to the AP spike in comparison to the control (no acid) (E. coli AP; [3]): most effective | reflectance (E. coli AP; [4]): .03

O=C(O)CCCC(=O)O [B, glutaric acid]
Reflectance (arbitrary units) [1, 2]: .10 arbitrary units | reflectance (E. coli AP; [4]): .06 | visual (E. coli AP; [4]): (+)

O=C(O)C(O)C(O)C(=O)O (stereo not drawn) [C, tartaric acid]
Reflectance (arbitrary units) [1, 2]: .10 arbitrary units | reduction of signal due to the AP spike in comparison to the control (no acid) (E. coli AP; [3]): most effective | reflectance (E. coli AP; [4]): .04

O=C(O)CCC(=O)O [D, succinic acid]
Reflectance (arbitrary units) [1]: .10 arbitrary units | reflectance (E. coli AP): .06 | visual (E. coli AP): (+)

O=C(O)CC(O)C(=O)O (stereo not drawn) [E, malic acid]
Reflectance (arbitrary units) [1, 2]: .12 arbitrary units | reflectance (E. coli AP; [4]): .06 | visual (E. coli AP; [4]): (+)

CC(O)C(=O)O (stereo not drawn) [F, lactic acid]
Reflectance (arbitrary units) [1, 2]: .12 arbitrary units | reflectance (E. coli AP; [4]): .06 | visual (E. coli AP; [4]): (+)
